Molecular target: human GOAT (Homo sapiens (Human), UniProt Q96T53)
Test: Determination of hGOAT Activity in HEK293 Cells after Incubation with Test Compound
Type: cell-based
Details: HEK293 cells stably transfected with preproghrelin and human GOAT; octanoate-BSA 100 μM; acyl-ghrelin in medium by ELISA after 5 hours
Outline: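 HEK293 cells stably expressing preproghrelin and human GOAT were given serum-free medium with 100 μM octanoate-BSA plus compound (0.3% DMSO) for 5 h. Acyl-ghrelin in the medium was quantified by ELISA (A405, standard curve) as % of vehicle. IC50 was fitted from 8 concentrations.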

Chain of human GOAT (Q96T53 whole entry): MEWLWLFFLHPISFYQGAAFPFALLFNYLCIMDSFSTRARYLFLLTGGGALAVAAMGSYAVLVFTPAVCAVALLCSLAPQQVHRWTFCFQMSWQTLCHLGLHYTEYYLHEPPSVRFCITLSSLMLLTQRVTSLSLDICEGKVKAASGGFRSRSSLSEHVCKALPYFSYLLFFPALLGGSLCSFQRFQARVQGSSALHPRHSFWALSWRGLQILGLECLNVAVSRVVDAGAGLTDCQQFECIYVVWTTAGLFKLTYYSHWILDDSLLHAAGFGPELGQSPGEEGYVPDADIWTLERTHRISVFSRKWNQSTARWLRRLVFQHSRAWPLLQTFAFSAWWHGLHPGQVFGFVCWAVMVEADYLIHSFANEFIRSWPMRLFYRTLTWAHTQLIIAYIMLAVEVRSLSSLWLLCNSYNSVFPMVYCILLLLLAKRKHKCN

SMILES	IC50
Cc1nc2nonc2c(N)c1Cc1ccc(Br)c(=O)[nH]1 [Example 163, 6-(7-Amino-5-methyl-[1,2,5]oxadiazolo[3,4-b]pyridin-6-ylmethyl)-3-bromo-1H-pyridin-2-one]	2.5 nM
Cc1nc2nonc2c(N)c1Cc1cccc(C#N)n1 [Example 164, 6-(7-Amino-5-methyl-[1,2,5]oxadiazolo[3,4-b]pyridin-6-ylmethyl)-pyridine-2-carbonitrile]	7.4 nM
Cc1nc2nonc2c(N)c1Cc1nc(C#N)cc(C(F)F)n1 [Example 165, 2-(7-amino-5-methyl-[1,2,5]oxadiazolo[3,4-b]pyridin-6-ylmethyl)-6-(difluoromethyl)pyrimidine-4-carbonitrile]	14 nM
Cc1nc2nonc2c(N)c1Cc1ncc(Cl)c(C(F)F)n1 [Example 166, 6-[5-chloro-4-(difluoromethyl)pyrimidin-2-yl]methyl-5-methyl-[1,2,5]oxadiazolo[3,4-b]pyridin-7-amine]	0.38 nM
Cc1nc2nonc2c(N)c1Cc1nc(C(F)F)c(Cl)c(C(F)F)n1 [Example 167, 6-[5-chloro-4,6-bis(difluoromethyl)pyrimidin-2-yl]methyl-5-methyl-[1,2,5]oxadiazolo[3,4-b]pyridin-7-amine]	0.82 nM

Second part, the molecule after the results:

IC50	SMILES
3 nM	Cc1nc2nonc2c(N)c1Cc1ccc(S(C)(=O)=O)c(S(C)(=O)=O)n1 [Example 160, 6-(5,6-Bis-methanesulfonyl-pyridin-2-ylmethyl)-5-methyl-[1,2,5]oxadiazolo[3,4-b]pyridin-7-ylamine]
0.89 nM	Cc1nc2nonc2c(N)c1Cc1ccc(Br)c(S(C)(=O)=O)n1 [Example 161, 6-(5-Bromo-6-methanesulfonyl-pyridin-2-ylmethyl)-5-methyl-[1,2,5]oxadiazolo[3,4-b]pyridin-7-ylamine]
4.6 nM	Cc1nc2nonc2c(N)c1Cc1ccc(C#N)c(S(C)(=O)=O)n1 [Example 162, 6-(7-Amino-5-methyl-[1,2,5]oxadiazolo[3,4-b]pyridin-6-ylmethyl)-2-methanesulfonyl-nicotinonitrile]

From US10308667B2, “Oxadiazolopyridine derivatives for use as ghrelin O-acyl transferase (GOAT) inhibitors” (Boehringer Ingelheim International GmbH, priority 2016, dated 2019)
